From US5731328A, “Methods of inhibiting plasminogen activator inhibitor 1” (Eli Lilly and Company, priority 1996, dated 1998)

Assays:
PAI-1 = conditions: post-menopausal women, estrogen therapy; cited from earlier work
estrogen receptor = conditions: cited from earlier work
[1] = tested on: secretion of PAI-1 from human endothelial cells (HUVEC); test: Endothelial cell PAI-1 assay: IL-1 induced PAI-1 secretion, Imubind Plasma PAI-1 ELISA; type: cell-based
Procedure: 96 well tissue culture plates were prepared with 5×10^4 human endothelial cells (HUVEC) per well in Clonetics' Endothelial Cell Growth Medium (EGM) supplemented with 2% FBS. Following incubation overnight at 37° C., the medium was replaced with serum-free medium (DMEM/F-12 medium, 20 mM-HEPES, pH 7.5, 50 μg/ml gentamicin, 1 μg/ml human transferrin and 1 μg/ml bovine insulin) with or without compound 1, (where R1 and R2 are hydroxy, and […] is pyrrolidino), and with or without 1 nM IL-1-beta. Following incubation overnight at 37° C., samples of culture medium were assayed for secreted PAI-1 using the Imubind Plasma PAI-1 ELISA (American Diagnostic Inc. #822/1S).
Human umbilical vein endothelial cells (HUVEC) were treated with compound 1 concurrent to the induction of PAI-1 with IL-1. […] Further the positive effect of compound 1 on reducing PAI-1 may provide for acute uses in conditions where elevated levels are associated with pathology.

[2] = tested on: Human umbilical vein endothelial cells (HUVEC); test: Responsiveness of HUVEC lots to 17-beta estradiol; type: cell-based; conditions: several lots of cells from Clonetics, initial experiments

## estrogen
PAI-1
  reduction of PAI-1 levels (in words): reduced to pre-menopausal levels

## O=C(c1ccc(OCCN2CCCCC2)cc1)c1c(-c2ccc(O)cc2)sc2cc(O)ccc12 [Raloxifene]
Estrogen receptor
  binding to the estrogen receptor (in words): shown to bind to the estrogen receptor

## O=C(c1ccc(OCCN2CCCC2)cc1)c1c(-c2ccc(O)cc2)sc2cc(O)ccc12 [Compound 1]
[1]; 0.5 nM, estrogen-responsive line
  induction of PAI-1 by IL-1 (in words): significantly reduced the induction of PAI-1 by IL-1
[1]; Homo sapiens, 5 × 10^-9 M, IL-1 induced secretion, different lot of estrogen-responsive HUVEC, read-out: PAI-1 Level (% inhibition)
  inhibition at 0.005 µM: 82 ± 17%
[1]; Homo sapiens, 5 × 10^-10 M, IL-1 induced secretion, different lot of estrogen-responsive HUVEC, read-out: PAI-1 Level (% inhibition)
  inhibition at 0.0005 µM: 65 ± 8%
[1]; Homo sapiens, 5 × 10^-11 M, IL-1 induced secretion, different lot of estrogen-responsive HUVEC, read-out: PAI-1 Level (% inhibition)
  inhibition at 50 pM: 48 ± 11%
[1]; Homo sapiens, 5 × 10^-12 M, IL-1 induced secretion, different lot of estrogen-responsive HUVEC, read-out: PAI-1 Level (% inhibition)
  inhibition at 5 pM: 22 ± 4%
[1]; Homo sapiens, 5 × 10^-13 M, IL-1 induced secretion, different lot of estrogen-responsive HUVEC, read-out: PAI-1 Level (% inhibition)
  inhibition at 500 fM: -1 ± 7%
[1]; Homo sapiens, 5 × 10^-14 M, IL-1 induced secretion, different lot of estrogen-responsive HUVEC, read-out: PAI-1 Level (% inhibition)
  inhibition at 50 fM: 0%
[1]; IL-1 & .5 nM compound 1, HUVEC, overnight at 37° C., serum-free medium, No IL-1 control 328 +/- 46, IL-1 alone 735 +/- 11
  PAI-1 Level (mean +/- SE, n = 4): 521 ± 52 ng/mL
[1]; different lot of estrogen-responsive cells
  inhibition of IL-1 induced PAI-1 secretion, concentration dependence (in words): inhibited IL-1 induced secretion in a concentration-dependent manner
[1]; summary of Tables 1 and 2
  inhibition of the induction of PAI-1 from activated endothelial cells (in words): very potent inhibitor

## C[C@]12CC[C@@H]3c4ccc(O)cc4CC[C@H]3[C@@H]1CC[C@@H]2O [17-beta estradiol]
[2]
  responsiveness of HUVEC lots (in words): not all lots were responsive
